Consider 69 compounds from PubChem BioAssay AID624344 (Sanford-Burnham Center for Chemical Genomics, 2012).

Calls of active or inactive are those of the source. How the calls were made is not given here.

The test system of one assay is Cytotoxicity. Nature of the assay: inhibitors of PAF-induced NFkB signaling in CF airway cells, dose response, cell-based, uHTS hits, panel, cytotoxicity readout (AID 624344). To be noted: CF bronchial epithelial cells, mean of runs.
Experiment in assay [1]: as above
To be noted: CF bronchial epithelial cells, PAF-induced NFkB reporter inhibition; with PAF, mean of runs.

As for `Cc1nc2sc(C(N)=O)c(N)c2c(C)c1CC(=O)c1ccccc1`, the IC50 was > 79 µM (inactive) with Cytotoxicity and 10.7 µM in assay [1]. For the compound `Cc1ncc(CO)c2c1Oc1nc(-c3ccccc3F)nc(SCC(=O)N(C)c3ccccc3)c1C2`, the IC50 in the assay with Cytotoxicity is 11.3 µM; in assay [1] it was 4.17 µM.

As for `CS(=O)(=O)c1ccc2nc(NC(=O)Nc3cccc(Cl)c3)sc2c1`, the half-maximal inhibitory concentration (IC50) was 3.28 µM with Cytotoxicity and 3.67 µM in assay [1]. On the same counts, the results for `CC(=O)Oc1c(Cl)cc(N(C(C)=O)S(=O)(=O)c2ccccc2)c2ccccc12` are 8.93 µM and 7.68 µM. For `O=C(/C=C/c1cccc([N+](=O)[O-])c1)NC(=S)Nc1ccc(CN2CCOCC2)cc1`, the IC50 in the assay on Cytotoxicity is 19.8 µM; in assay [1] it was 5.19 µM. On the same counts, the results for `COC(=O)N1C(=O)[C@@](c2ccccc2)(C(C)C)N1C(=O)OC` are 38.7 µM and 4.26 µM. The matching figures for `CN(C)/C=C/C(=O)c1ccc2noc(-c3ccccc3)c2c1`: 10.8 µM and 3.54 µM. `O=C(NCCN1CCN(c2ccccc2)CC1)c1cccc(Br)c1`: the values for the IC50 (with Cytotoxicity; in assay [1]) were 57.4 µM (inactive) and 18.9 µM, respectively. Regarding `FC(F)Sc1ccc(NC(=S)NCC2CCCCC2)cc1`, the IC50 was 7.18 µM in the assay with Cytotoxicity and 5.53 µM in assay [1].

On to `CCCCCCCCCCCCCCC(O)C[N+](C)(CCO)CCO` (stereo not given), for which the IC50 was 5.47 µM in the assay with Cytotoxicity and 4.61 µM in assay [1]. As for `Cc1ccc(S(=O)(=O)N2[C@@H](c3ccc(C(C)(C)C)cc3)C(C(=O)O)=CC[C@H]2c2ccc(C(C)C)cc2)cc1`, the IC50 in the assay with Cytotoxicity is 55.7 µM (inactive); in assay [1] it was 12.9 µM.

For `O=C(O)/C=C/c1ccc2c(-c3ccccc3)onc2c1`, the 50% inhibitory concentration (IC50) with Cytotoxicity was 4.73 µM; in assay [1], 1.81 µM. For the compound `c1ccc(-c2nc3nonc3nc2-c2ccccc2)cc1`, the 50% inhibitory concentration (IC50) in the assay on Cytotoxicity was 45.4 µM; in assay [1], 12.2 µM. In the case of `COc1cc(O)c(CC=C(C)C)c(O)c1C(=O)CCc1ccc(O)cc1`, the IC50 is 41.5 µM in the assay on Cytotoxicity and 5 µM in assay [1]. With `COc1cccc(-c2ccc3ncnc(NCc4ccc5c(c4)OCO5)c3c2)c1`, the half-maximal inhibitory concentration (IC50) was 18.1 µM in the assay on Cytotoxicity and 1.61 µM in assay [1]. `O=C(N/N=C/c1ccccc1)c1[nH]c2ccc(Br)cc2c1-c1ccccc1`: the IC50 was 40.6 µM with Cytotoxicity and 6.11 µM in assay [1]. Turning to `CC(=O)c1c(O)cc2c3c1OC(C)(C)C1CCC(C)(CC31)O2` (stereo not given), the IC50 with Cytotoxicity was 53.5 µM (inactive); in assay [1], 2.73 µM. For the compound `C=CC[C@@H](CC/C=C/C=C/CC/C=C\[C@@H]1CSC([C@@H]2C[C@@H]2C)=N1)OC`, in the assay on Cytotoxicity, the IC50 is 63 µM (inactive). For the same compound, the IC50 entry in assay [1] was “inactive”.

Regarding `CCOc1cc(Br)c(Br)c(C=Nc2ccc(NC(C)=O)cc2)c1O`, the IC50 was > 79 µM (inactive) with Cytotoxicity and 3.91 µM in assay [1]. With `CCCNC(=O)COC(=O)c1ccccc1C(=O)c1ccc(Cl)c([N+](=O)[O-])c1`, the IC50 with Cytotoxicity is 7.71 µM; in assay [1], 1.8 µM. The matching figures for `Fc1ccccc1-c1csc(=Nc2cccnc2)n1CCCn1ccnc1`: 48.4 µM and 5.92 µM.

As for `CS(=O)(=O)c1ncc(Cl)c(C(=O)Nc2ccc(OC(F)F)cc2)n1`, the half-maximal inhibitory concentration (IC50) in the assay on Cytotoxicity is 3.58 µM; in assay [1], 1.78 µM. The matching figures for `C[C@H]1Cn2cnc(C(=O)Nc3cccc(Cl)c3)c2C(=O)N1`: 25.5 µM and 2.26 µM.

For the compound `O=C(Nc1ccc2ccccc2c1)c1ccccc1O`, the IC50 with Cytotoxicity was 2.5 µM; in assay [1], 5.07 µM.

As to `Cc1c(-c2ccccc2)oc2c(C(=O)N3CCN(c4ccc([N+](=O)[O-])cc4)CC3)cccc2c1=O`, the IC50 with Cytotoxicity was > 79 µM (inactive); in assay [1], 0.854 µM.

Consider `CC(C)=CCc1c(O)cc(O)c2c1OC(c1ccc(O)cc1)CC2=O` (stereo not given), for which the concentration for half-maximal inhibition (IC50) was 43.6 µM in the assay on Cytotoxicity and 4.52 µM in assay [1]. The matching figures for `COc1ccc(COC(=O)C2=C(C)NC(=O)NC2c2ccc(OC)cc2)cc1` (stereo not given): 44.5 µM and 6.54 µM. In the case of `O=C1OC(c2ccccc2)(c2cc(Br)ccc2O)c2ccccc21` (stereo not given), the IC50 in the assay with Cytotoxicity is 42.4 µM; in assay [1], 6.65 µM. `CC(C)OC(=O)c1cccc(C(=O)Nc2cccc(NC(=O)c3cccc(C(=O)OC(C)C)n3)n2)n1`: the IC50 with Cytotoxicity was > 79 µM (inactive); in assay [1], 4.5 µM.

In the case of `COc1ccc(-c2cn[nH]c2-c2ccc(OCc3ccc([N+](=O)[O-])cc3)cc2O)cc1`, the figures for the IC50 (with Cytotoxicity; in assay [1]) were 31.8 µM and 4.72 µM, respectively.

`O=C1NCCc2c1[nH]c1c(Cl)ccc(Cl)c21`: the IC50 with Cytotoxicity was 11 µM; in assay [1], 1.54 µM. For the compound `Cc1ccc(CSc2nccc(-c3c(C)nc4ccccn34)n2)cc1`, the figures for the IC50 (in the assay with Cytotoxicity; in assay [1]) were 26.4 µM and 3.18 µM, respectively. As to `COc1ccc(-c2cc(=O)oc3cc(OC(=O)C4CCCCC4)c(Cl)cc23)cc1`, the results for the IC50 (with Cytotoxicity; in assay [1]) were 61.6 µM (inactive) and 0.302 µM, respectively. The matching figures for `Clc1ccc(-c2csc3ncnc(N4CCc5ccccc5C4)c23)cc1`: 19.2 µM and 3.99 µM.

Take `O=Nc1c(O)n(Cc2c(Cl)cccc2Cl)c2ccccc12`: the IC50 is 49.2 µM in the assay with Cytotoxicity and 5.45 µM in assay [1]. The matching figures for `CCOc1ccc(Nc2ncnc3ccc([N+](=O)[O-])cc23)cc1`: 21.4 µM and 1.67 µM. The matching figures for `CCOc1cccc(-c2nnc3sc(C4CCCCC4)nn23)c1`: 33.3 µM and 2.88 µM. `COc1cccc(-c2nnc3sc(C4CCCCC4)nn23)c1`: the IC50 is 10.6 µM in the assay with Cytotoxicity and 0.82 µM in assay [1]. In the case of `Cc1ccc(CNc2ncnc3ccc(-c4ccoc4C)cc23)o1`, the IC50 is 14.8 µM with Cytotoxicity and 0.381 µM in assay [1]. On the same counts, the results for `CCC(CO)Oc1cc(NCc2ccc(Cl)cc2Cl)c2ncn(C(C)C)c2c1` (stereo not given) are 11 µM and “inactive”. As to `CCn1c2ccccc2c2cc(/C=N/O)ccc21`, the IC50 was 46.4 µM in the assay with Cytotoxicity and 3.38 µM in assay [1]. With `CNC(=O)COC(=O)c1ccccc1C(=O)c1ccc(Cl)c([N+](=O)[O-])c1`, the concentration for half-maximal inhibition (IC50) in the assay with Cytotoxicity was 3.7 µM; in assay [1], 1.01 µM. Take `C=C1C(C)C2C(Cc3ccccc3)NC(=O)C23OC(=O)/C=C/C(O)CCCC(C)C/C=C/C3C1O` (stereo not given): the values for the IC50 (in the assay with Cytotoxicity; in assay [1]) were 2.32 µM and 1.25 µM, respectively.

Consider `Cc1ccc(NS(=O)(=O)c2ccc(-c3cnc(C4CC4)o3)cc2)c(C)c1`, for which the IC50 with Cytotoxicity was 32.5 µM; in assay [1], 14.2 µM. On the same counts, the results for `CC(C)[C@H](CO)Nc1nc(NCc2ccc(S(N)(=O)=O)cc2)c2ncn(C(C)C)c2n1` are 11.9 µM and 1.67 µM. `CCc1nc(Cl)c(C#N)c2c1CCCC2`: the concentration for half-maximal inhibition (IC50) with Cytotoxicity was 45.4 µM; in assay [1], 2.87 µM. On the same counts, the results for `Cc1ccc(-n2nnnc2Sc2ccc(S(=O)(=O)NCCN(C)C)cc2[N+](=O)[O-])cc1` are 1.99 µM and 2.65 µM.

As for `O=C(Nc1cccc2[nH]ncc12)c1ccc(F)cc1`, the IC50 in the assay on Cytotoxicity was > 79 µM (inactive); in assay [1], 1.06 µM. For the compound `CCN(CC)S(=O)(=O)c1ccc(NC(=O)Nc2cccc(C(F)(F)F)c2)cc1`, the values for the concentration for half-maximal inhibition (IC50) (in the assay with Cytotoxicity; in assay [1]) were 12.2 µM and 6.03 µM, respectively. On to `O=c1c(O)c(-c2ccccc2)oc2cc(O)cc(O)c12`, for which the IC50 in the assay on Cytotoxicity was 54 µM (inactive); in assay [1], 3.27 µM. The matching figures for `C=CCSc1nsc(NC(=O)Nc2cccc(C(C)=O)c2)n1`: 6.08 µM and 1.44 µM. The matching figures for `O=C(Nc1ccc([N+](=O)[O-])cc1)Nc1ccc(Cl)cc1F`: 2.19 µM and 2.92 µM. The matching figures for `C/C(=N/NC(=O)c1cccs1)c1ccc(NC(=O)COc2ccc(Cl)cc2)cc1`: 26.5 µM and “inactive”.

For `CCC(=O)c1ccc(O)c(CC=C(C)C)c1`, the IC50 in the assay on Cytotoxicity was 60.1 µM (inactive); in assay [1], 5.27 µM. On the same counts, the results for `O=C(Nc1ccc(Oc2ccc(NC(=O)Nc3ccc([N+](=O)[O-])cc3)cc2)cc1)Nc1ccc([N+](=O)[O-])cc1` are 27.8 µM and 6.12 µM. On the same counts, the results for `O=C(COC(=O)c1ccc2[nH]c3c(c2c1)CCCC3)Nc1ccccc1Cl` are 36.6 µM and “inactive”. For `CCOc1ccc(CCN2C(=S)N([C@@H](CC(C)C)CN3CCCC3CN3C(=S)NC[C@@H]3CC(C)C)C[C@@H]2Cc2ccc(O)cc2)cc1` (stereo not given in full), the results for the IC50 (with Cytotoxicity; in assay [1]) were 64.1 µM (inactive) and 14.9 µM, respectively. As for `CCC1=Nc2cc(C(=O)NCc3ccco3)ccc2Sc2ccc(C)cc21`, the IC50 in the assay with Cytotoxicity was 57.9 µM (inactive); in assay [1], 11.7 µM.

With `COc1cccc(-c2cnc3c(NC=O)cc(-c4ccc(OC)cc4OC)cn23)c1`, the figures for the half-maximal inhibitory concentration (IC50) (in the assay with Cytotoxicity; in assay [1]) were 26 µM and 14.2 µM, respectively. In the case of `CCOC(=O)c1c(-c2ccccc2)oc2cc(Br)c(O)c(C=O)c12`, the 50% inhibitory concentration (IC50) with Cytotoxicity was 13.3 µM; in assay [1], 3.05 µM. On the same counts, the results for `COc1ccc(-c2cc(=O)oc3c(C)c(O)ccc23)cc1` are 67.5 µM (inactive) and 0.867 µM. The matching figures for `COc1cc(OC)cc(C(=O)N[C@H](C(=O)Nc2nc3ccccc3[nH]2)C(C)C)c1`: 41.1 µM and “inactive”.

With `O=C(NCc1ccccc1)C1=C[C@H](c2csc3ccccc23)C[C@H](OCc2ccc(CO)cc2)O1`, the concentration for half-maximal inhibition (IC50) with Cytotoxicity is 12.8 µM. The IC50 entry in assay [1] was “inactive”. On the same counts, the results for `Cc1ccc(-c2onc3ccc(C(=O)/C=C/N(C)C)cc23)cc1` are 22.9 µM and 9.39 µM. On the same counts, the results for `Cc1cnc(NC(=O)C2CC(=O)N(c3cccc(Cl)c3)C2)s1` (stereo not given) are 29.1 µM and 3.18 µM. The matching figures for `Cc1ccc(C(=O)c2cc([N+](=O)[O-])ccc2N2CCCCC2)c(C)c1`: > 79 µM (inactive) and 6.86 µM.

Regarding `O=S1(=O)CC=C(CSC(=S)NC2CCS(=O)(=O)C2)C1` (stereo not given), the IC50 in assay [1] was 3.05 µM. Same read-out and setting: next, `O=C1C=C(NC2=CC3OC(c4ccccc4)OCC3OC2=O)CCC1` (stereo not given): 3.74 µM; `O=C(N/N=C/c1ccccc1Cl)c1[nH]c2ccc(Br)cc2c1-c1ccccc1`: 10.7 µM.
